Assay results: patent publication US20120164083A1, “Sweetness Enhancers Including Rebaudioside A or D” (Redpoint Bio Corporation, priority 2009, published 2012)
Where “and” joins values, the source holds several entries; their conditions need not be identical. Identical values can stand only once. Entries after “also recorded” stand apart in the source; their conditions may differ.

What was measured:
Assay type in all cases: in vivo, human
expert taste panel [1] = test: double-blind controlled sweetness intensity test of solutions, sequential monadic, sip and spit (Example 1 protocol); conditions: for sweetness of the solution compared with 7% (w/v-%) fructose solution: 300 μM in 5% (w/v-%) fructose solution; for sweetness of the solution compared with 7% (w/v-%) sucrose solution: 300 μM in 5% (w/v-%) sucrose solution, 20 judges; for mean sweetness intensity score: scale 0 to 8
expert taste panel [2] = test: double-blind controlled sweetness intensity test of enhancer combinations, taste and swallow (Example 12 protocol); conditions: 5% (w/v-%) sucrose solution alone; scale 0 to 8
Method: The sweetness enhancing effect of the combination of 40 μM Reb A (purity>95%) and 300 μM Reb C (Chromadex, CA; purity 94.9%; 2.9% impurities other than water) on 5% (w/v-%) sucrose solution was evaluated in a double-blind controlled test conducted according to the following protocol. Four products were evaluated by trained judges as follows: • low concentration sucrose (5% w/v) • low concentration sucrose+sweetness enhancer 1 (40 μM Reb A) • low concentration sucrose+sweetness enhancer 2 (300 μM Reb C) • low concentration sucrose+sweetness enhancer 1+sweetness enhancer 2
The products were evaluated using a sequential monadic test protocol. Subjects were given three 10 ml samples to evaluate. Each subject was directed to taste and swallow each sample and then assess the sweetness intensity of the sample. The intensity was rated on a score card by marking a numerical value along a scale from 0 to 8 (e.g., 0=none, 2=slight, 4=definite, 8=very strong). Following the decision regarding the sweetness intensity, subjects were instructed to vigorously rinse their mouth with water. Subjects then were given unsalted crackers to cleanse the palate. […] A second sample was then presented and evaluated as above and the same procedure was followed until all three products were evaluated. […]

expert taste panel [3] = test: double-blind controlled sweetness intensity test in iced tea, taste and swallow (Example 6 protocol)
Method: The sweetness enhancing effect of 300 μM Reb C (Chromadex, CA; purity 94.9%; […]) (equivalent to the sweetness intensity of an 8% (w/v-%) sucrose solution) was evaluated in a double-blind controlled test conducted according to the following protocol. Three products were evaluated by trained judges as follows: • high concentration HFCS (14.29% w/v; equivalent to 11% w/v sucrose solution) • low concentration HFCS (10.39% w/v; equivalent to 8% w/v sucrose solution) • low concentration HFCS+sweetness enhancer (test compound)
The products were evaluated using a sequential monadic test protocol. Subjects were given three 10 ml samples to evaluate. Each subject was directed to taste and swallow each sample and then assess the sweetness intensity of the sample. The intensity was rated on a score card by marking a numerical value along a scale from 0 to 8 (e.g., 0=none, 2=slight, 4=definite, 8=very strong). Following the decision regarding the sweetness intensity, subjects were instructed to vigorously rinse their mouth with water. Subjects then were given unsalted crackers to cleanse the palate. A period of 10 minutes elapsed between presentations of each sample to reduce the potential influence of residual taste effects. A second sample was then presented and evaluated as above and the same procedure was followed until all three products were evaluated. […]

subjects = test: qualitative taste evaluation of Reb C water solutions (forced-choice and open report, Example 3); conditions: for qualitative taste description: one line per subject
Method: Subjects were asked to sip most or all of the 10 ml from the first cup, swish the liquid in their oral cavity, and expectorate into a cup, then rinse their mouths vigorously with water. Soon thereafter, the contents of the second cup were sampled in the same manner. Then, subjects were asked to choose the sweeter of the two samples, or if not sweet, to describe the qualitative taste profile of the sample having a detectable taste. […] The subjects have the following qualitative taste descriptions: […]

panelists = test: quantitative flavor profile by trained panelists (Example 11)
Method: The taste of 150, 300, and 600 μM Reb C was evaluated by a test group. 10 panelists were trained over a period of a few weeks to provide a quantitative flavor profile of Reb C. Panelists first were trained using standard tastants representing the different taste modalities given in FIG. 10 (i.e., sweet, bitter, salt, sour, and licorice). They then were trained to use the scales when flavors were mixed together. All intensity ratings are on scales ranging from 0 (no taste) to 8 (highest intensity). The intensity rating for sweet is essentially the same as used in Examples 1 and 6. The taste profiles were obtained for 150, 300, and 600 μM Reb C. Reb A (0.2 mg/ml, a concentration used in some food/beverage applications for sweetening) was also evaluated in the test for comparison. The scale is not linear at the bottom. A rating of 1 is around the threshold for sweetness detection.

[4] = 300 μM in 8% (w/v-%) sucrose solution
[5] = 250 μM water solution, five subjects

Compound	sweetness of the solution compared with 7% (w/v-%) fructose solution (expert taste panel [1])	sweetness of the solution compared with 7% (w/v-%) sucrose solution (expert taste panel [1])	off-tastes (expert taste panel [1]; [4])	sweetness of the solution compared with 11% (w/v-%) sucrose solution (expert taste panel [1]; [4])	mean sweetness intensity score (expert taste panel [1]; 8% (w/v-%) sucrose solution with 300 μM Dulc A)	mean sweetness intensity score (expert taste panel [1]; 8% (w/v-%) sucrose solution alone)	mean sweetness intensity score (expert taste panel [1]; 11% (w/v-%) sucrose solution alone)	mean sweetness intensity (expert taste panel [2])	sweetness of the solution compared with 8% and 11% (w/v-%) sucrose solutions (expert taste panel [1]; 150 μM in 8% (w/v-%) sucrose solution)	mean sweetness intensity score (expert taste panel [1]; 8% (w/v-%) sucrose solution with 150 μM Reb C)	sweetness compared with 8% and 11% (w/v-%) sucrose (expert taste panel [3]; 300 μM in iced tea with 8% (w/v-%) sucrose)	sweetness compared with 14.29% (w/v-%) HFCS solution (equivalent to 11% sucrose) (expert taste panel [3]; 300 μM in iced tea with 10.39% (w/v-%) HFCS)	forced-choice identification of the sample against water (subjects; [5])	qualitative taste description (subjects; [5])	qualitative taste description (subjects; 250 and 300 μM in water, four subjects)	unpleasant tastes, bitter and licorice (panelists; 150, 300 and 600 μM alone)	intrinsic sweetness (panelists; 150, 300 and 600 μM, scale 0 to 8)	unpleasant tastes, bitter and licorice (panelists; combined with sugar)
C=C1C[C@@]23CC[C@H]4[C@@](C)(CCC[C@@]4(C)C(=O)O[C@@H]4O[C@H](CO)[C@@H](O)[C@H](O)[C@H]4O)[C@@H]2CC[C@]1(O[C@@H]1O[C@H](CO)[C@@H](O)[C@H](O)[C@H]1O[C@@H]1O[C@@H](C)[C@H](O)[C@@H](O)[C@H]1O)C3 [Dulc A, dulcoside A]	achieved that of a 7% (w/v-%) fructose solution	achieved that of a 7% (w/v-%) sucrose solution	No off-tastes were detected	approached that of an 11% (w/v-%) sucrose solution	6.3													
OC[C@H]1O[C@@](CO)(O[C@H]2O[C@H](CO)[C@@H](O)[C@H](O)[C@H]2O)[C@@H](O)[C@@H]1O [sucrose, α-D-glucopyranosyl-(1→2)-β-D-fructofuranose, reference compound]						5.30 and 5.0	6.95 and 6.7	about 4										
rebaudioside C [Reb C]	close to that of a 7% (w/v-%) fructose solution	indistinguishable from that of a 7% (w/v-%) sucrose solution		close to that of an 11% (w/v-%) sucrose solution					between that of the 8% (w/v-%) sucrose solution and that of an 11% (w/v-%) sucrose solution	6.10	between that of the 8% (w/v-%) solution and that of an 11% (w/v-%) sucrose solution	indistinguishable from that of a 14.29% (w/v-%) HFCS solution	All subjects correctly identified the sample containing Reb C	Metallic, not sweet; also recorded: Aversive (“Nasty”); also recorded: Slight sweet, astringent; also recorded: Faintly sweet; also recorded: Slight sweet/licorice	Both concentrations bitter and/or licorice	barely detected	little or no intrinsic sweetness	undetected
